In publication PMC7067379, “Mapping the S1 and S1’ subsites of cysteine proteases with new dipeptidyl nitrile inhibitors as trypanocidal agents” (PLoS Neglected Tropical Diseases, 2020):
Where two headings read alike, the source gives them in different places.

Legend:
cathepsin L (CatL) = cathepsin L (CatL) (Homo sapiens, UniProt P07711); test: Cathepsin L enzyme inhibition; format: biochemical; settings: for Ki: SD lower than 15%, read-out: pKi CatL (converted); for difference in pKi, CatL: relative to compound 11, sign not given, direction by cell colour or wording
[1] = biological target: Leishmania mexicana CPB (LmCPB) (Leishmania mexicana, UniProt P36400); test: LmCPB enzyme inhibition; format: biochemical
Procedure: (§1) Enzyme inhibition studies for Cz and LmCPB were performed as previously described for Cz. The experimental procedures are described in the Supporting Information (see chapter S3). Cathepsins B, L, S were assayed as reported.

[2] = biological target: T1, Human recombinant cathepsin K (Homo sapiens, UniProt P43235); test: Cathepsin K assay; format: biochemical; settings: for Ki: SD lower than 15%, read-out: pKi CatK (converted)
T1 sequence (P43235 115-329): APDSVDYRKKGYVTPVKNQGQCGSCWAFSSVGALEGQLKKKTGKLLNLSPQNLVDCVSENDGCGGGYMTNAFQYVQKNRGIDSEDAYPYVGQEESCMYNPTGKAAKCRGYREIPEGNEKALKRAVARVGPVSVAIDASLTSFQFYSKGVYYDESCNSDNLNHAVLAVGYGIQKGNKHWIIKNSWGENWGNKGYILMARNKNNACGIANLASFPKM
Procedure: Human recombinant cathepsin K was assayed on a FLUOSTAR Optima plate reader at 25 °C with an excitation wavelength of 360 nm and an emission wavelength of 440 nm on a 96 well plate. The enzyme solution (23 μg/mL in 50 mM sodium acetate pH 5.5, 50 mM NaCl, 0.5 mM EDTA, 5 mM DTT) was diluted 1:100 with assay buffer (100 mM sodium citrate buffer pH 5.0, 100 mM NaCl, 1 mM EDTA, 0.01% CHAPS) containing 5 mM DTT and was then incubated at 37 °C for 30 min for activation. A 1.5 mM stock solution of the substrate Z-Leu-Arg-AMC was prepared in DMSO. […] The assay was performed with a final concentration of cathepsin K of 1.73 ng/mL. Stock solutions of inhibitors were prepared in DMSO. The final DMSO concentration was 2% (4 μL). Into a well containing 194.5 μL assay buffer, 0.8 μL of the fluorogenic substrate, DMSO and inhibitor solution (3.2 μL) were added. Upon addition of cathepsin K (1.5 μL), the measurement was started and followed for 20 min.

[3] = Mammalian cytotoxicity assay (MTT); format: cell-based; settings: rhesus monkey, LLCMK2 cells;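 note: Read-out is absorbance at 570 nm of formazan taken up in DMSO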
Procedure: LLCMK2 cells were cultured in 96-well plates at a concentration of 5 x 10^4 cells/ml. After 48 h, the plates were washed twice with PBS and 200 μL RPMI medium was added with serial dilutions of the compounds and benznidazole (1.95 μM to 250 μM) in triplicate. After 72 h at 37 °C, the cytotoxic activity of the compounds was determined by the classical MTT [3- (4,5-dimethylthiazol-2-yl) -2,5-diphenyltetrazolium bromide] method. Briefly, 50 μL MTT dissolved in PBS (2.0 mg mL^-1) was added to each well and the plates were incubated for 4 h at 37 °C. The formed formazan crystals were dissolved with DMSO (50 μL/well) and the absorbance of the samples was measured by spectrophotometer at 570 nm after 30 min.

cathepsin B (CatB) = cathepsin B (CatB) (Homo sapiens, UniProt P07858); test: Cathepsin B enzyme inhibition; format: biochemical; settings: for Ki: SD lower than 15%, read-out: pKi CatB (converted)
[4] = test system: T. cruzi Tulahuen LacZ strain, intracellular amastigote forms; test: In vitro trypanocidal activity on intracellular amastigote forms (Tulahuen strain); format: cell-based, Trypanosoma cruzi; settings: for EC50: Trypanosoma cruzi, TULAHUEN; for SI (selective index): from EC50 (T. cruzi) and CC50 (LLCMK2)
Procedure: Cells were evaluated in 96-well plates. Cells from the LLCMK2 lineage were plated at a concentration of 5x10^4 cells mL^-1. Trypomastigote forms of the Tulahuen LacZ strain were added at a concentration of 5×10^5 parasites mL^-1 and placed in the incubator at 37°C with 5% CO2 for 24 h. After the incubation period, the trypomastigote forms present were removed by successive washes with PBS, remaining only as intracellular amastigote forms. Compounds were added at different concentrations (1.95 μM to 250 μM serial dilutions) and incubated for 72 h. At the end of this period, the substrate CPRG (chlorophenol red β-D-galactopyranoside, 400 μM in 0.3% Triton X-100, pH 7.4) was added. […] Benznidazole was used as a positive control in the same concentrations as the substances, and DMSO as a negative control. Compounds were solubilized in DMSO. The selectivity index (SI) was calculated using the formula: […]. All statistical analyses were done with the program GraphPad Prism v.5.

cathepsin S (CatS) = cathepsin S (CatS) (Homo sapiens, UniProt P25774); test: Cathepsin S enzyme inhibition; format: biochemical; settings: SD lower than 15%; read-out: pKi CatS (converted)
Procedure: as §1

recombinant cruzain (Cz) = recombinant cruzain (Cz) (Trypanosoma cruzi, UniProt P25779); test: Cruzain enzyme inhibition; format: biochemical
Procedure: as §1

[5] = SD lower than 15%, read-out: pKi LmCPB (converted)
[6] = 10 μM, replicates = 2, n.i. = no inhibition observed at 10 μM
[7] = S1 Table, maximum concentration used 250 µM, read-out: CC50
[8] = SD lower than 15%, read-out: pKi Cz (converted)
[9] = LLCMK2, 72 h, MTT, Table 2, read-out: CC50 cytotoxicity
[10] = S1 Table, maximum concentration used 250 µM, read-out: EC50 T. cruzi
[11] = T. cruzi amastigote form, S1 Table, read-out: pEC50 (converted)
[12] = relative to compound 11, sign not given, direction by cell colour or wording

recombinant cruzain (Cz), sequence (P25779 123-337): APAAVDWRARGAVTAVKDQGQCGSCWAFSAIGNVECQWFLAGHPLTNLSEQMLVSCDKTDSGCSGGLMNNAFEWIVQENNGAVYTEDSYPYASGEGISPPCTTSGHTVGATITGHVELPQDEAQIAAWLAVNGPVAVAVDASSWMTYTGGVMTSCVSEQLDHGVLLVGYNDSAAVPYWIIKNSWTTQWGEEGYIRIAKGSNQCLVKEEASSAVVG
cathepsin L (CatL), sequence (P07711 114-333): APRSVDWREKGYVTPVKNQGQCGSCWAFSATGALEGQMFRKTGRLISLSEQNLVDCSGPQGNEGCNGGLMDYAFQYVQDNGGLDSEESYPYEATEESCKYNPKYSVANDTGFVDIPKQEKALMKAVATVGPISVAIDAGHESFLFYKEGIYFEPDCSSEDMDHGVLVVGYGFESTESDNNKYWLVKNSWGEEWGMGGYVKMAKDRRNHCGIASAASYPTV
cathepsin S (CatS), sequence (P25774 115-331): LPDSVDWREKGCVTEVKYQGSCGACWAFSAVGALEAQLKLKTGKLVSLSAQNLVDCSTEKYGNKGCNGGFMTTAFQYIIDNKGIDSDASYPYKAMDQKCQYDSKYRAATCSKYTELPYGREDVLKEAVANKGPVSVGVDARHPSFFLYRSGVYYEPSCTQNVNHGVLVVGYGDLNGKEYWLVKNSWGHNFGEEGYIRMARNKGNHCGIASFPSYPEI
Leishmania mexicana CPB (LmCPB), sequence (P36400 126-443): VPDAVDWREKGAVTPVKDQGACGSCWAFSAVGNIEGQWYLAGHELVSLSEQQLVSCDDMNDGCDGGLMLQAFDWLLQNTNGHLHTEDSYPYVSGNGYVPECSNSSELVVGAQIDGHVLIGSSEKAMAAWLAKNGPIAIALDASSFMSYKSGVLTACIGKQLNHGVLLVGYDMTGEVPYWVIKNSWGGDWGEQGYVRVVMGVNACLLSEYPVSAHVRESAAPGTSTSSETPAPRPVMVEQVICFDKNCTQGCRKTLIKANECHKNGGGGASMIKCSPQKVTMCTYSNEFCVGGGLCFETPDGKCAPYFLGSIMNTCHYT

| Structure (SMILES) | Ki (cathepsin L (CatL)) [nM] | Ki [1, 5] [nM] | CC50 at 72 h [3, 7] [nM] | Ki (cathepsin B (CatB)) [nM] | melting point [°C] | Ki (cathepsin S (CatS)) [nM] | Ki (recombinant cruzain (Cz); [8]) [nM] | difference in pKi, CatL (cathepsin L (CatL)) | Ki [2] [nM] | CC50 at 72 h [3, 9] [nM] | EC50 [4, 10] [nM] | EC50 [4, 11] [nM] | SI (selective index) ([4]; Table 2) | further results |
| --- | --- | --- | --- | --- | --- | --- | --- | --- | --- | --- | --- | --- | --- | --- |
| N#CC1(NC(=O)[C@H](Cc2c[nH]c3ccccc23)NC(=O)c2ccnc3cc(Cl)ccc23)CC1 [Compound 14, (S)-7-Chloro-N-(1-((1-cyanocyclopropyl)amino)-3-(1H-indol-3-yl)-1-oxopropan-2-yl)quinoline-4-carboxamide] | 2000 | 2000 | > 100000 | 20000 | 196 to 197 | 1000 | 631 |  |  |  |  |  |  | remaining activity (%) at 10 μM, CatK [2, 6]: n.i.^c; EC50 ([4]; read-out: EC50 T. cruzi, S1 Table, maximum concentration used 250 µM): > 100000 nM |
| CC(C)C[C@H](NC(=O)c1ccnc2cc(Cl)ccc12)C(=O)NC1(C#N)CC1 [Compound 15, (S)-7-Chloro-N-(1-((1-cyanocyclopropyl)amino)-4-methyl-1-oxopentan-2-yl)quinoline-4-carboxamide] | 251 | 50.1 | > 100000 |  | 169 to 170 | 126 | 15.8 | 1.0 | 126 | 73600 ± 8740 | 77300 | 79400 | 1.14 | remaining activity at 10 µM (cathepsin B (CatB); [6]): 89%; EC50 ([4]; 72 h, read-out: EC50 trypanocidal activity, amastigote, Tulahuen strain, 72 h, Table 2): 64700 ± 4320 nM |
| N#CC1(NC(=O)[C@H](Cc2ccccc2)NC(=O)c2cccc(OC(=O)c3ccccc3)c2)CC1 [Compound 16, (S)-3-((1-((1-Cyanocyclopropyl)amino)-1-oxo-3-phenylpropan-2-yl)carbamoyl)phenyl benzoate] | 501 | 100 |  | 6310 | 185 to 187 | 50.1 | 126 |  | 631 | > 100000 |  | 50100 | > 2.1 | EC50 ([4]; 72 h, amastigote, Tulahuen strain, 72 h, Table 2, read-out: EC50 trypanocidal activity): 47300 ± 3260 nM |
| CC(C)C[C@H](NC(=O)c1ccc(N)nc1)C(=O)NC1(C#N)CC1 [Compound 17, (S)-6-Amino-N-(1-((1-cyanocyclopropyl)amino)-4-methyl-1-oxopentan-2-yl)nicotinamide] | 316 | 158 | > 100000 |  | 100 to 101 | 25.1 | 79.4 |  | 10 |  | > 100000 | > 100000 |  | remaining activity (%) at 10 μM, CatB (cathepsin B (CatB); [6]): n.i.^c |
| CC(C)C[C@H](NC(=O)c1cnc2[nH]ccc2c1)C(=O)NC1(C#N)CC1 [Compound 18, (S)-N-(1-((1-Cyanocyclopropyl)amino)-4-methyl-1-oxopentan-2-yl)-1H-pyrrolo[2,3-b]pyridine-5-carboxamide] | 79.4 |  | > 100000 | 31600 | 79 to 80 | 50.1 |  |  | 2 |  | > 100000 | > 100000 |  | Ki [1]: 63.1 nM; difference in pKi, LmCPB [1, 12]: -0.5; Ki (recombinant cruzain (Cz)): 20 nM; difference in pKi, Cz (recombinant cruzain (Cz); [12]): -0.7 |
| C[C@@H](O)[C@H](NC(=O)c1cc(C(C)(C)C)nn1C)C(=O)NC1(C#N)CC1 [Compound 19, 3-(tert-Butyl)-N-((2S,3R)-1-((1-cyanocyclopropyl)amino)-3-hydroxy-1-oxobutan-2-yl)-1-methyl-1H-pyrazole-5-carboxamide] | 6310 |  | > 100000 | 25100 | 201 to 202 | 10000 |  | 0.5 | 3160 |  | > 100000 | > 100000 |  | remaining activity at 10 µM ([1]; 10 μM, replicates = 2): 67%; remaining activity at 10 µM (recombinant cruzain (Cz); 10 μM, replicates = 2): 51% |
